Results from US20230167073A1 (Teijin Pharma Limited, priority 2020, published 2023).

Target: T1, Human TRPC6 (Homo sapiens, UniProt Q9Y210)
T1 construct: expressed in transfected cells
T1 sequence (Q9Y210 1-931): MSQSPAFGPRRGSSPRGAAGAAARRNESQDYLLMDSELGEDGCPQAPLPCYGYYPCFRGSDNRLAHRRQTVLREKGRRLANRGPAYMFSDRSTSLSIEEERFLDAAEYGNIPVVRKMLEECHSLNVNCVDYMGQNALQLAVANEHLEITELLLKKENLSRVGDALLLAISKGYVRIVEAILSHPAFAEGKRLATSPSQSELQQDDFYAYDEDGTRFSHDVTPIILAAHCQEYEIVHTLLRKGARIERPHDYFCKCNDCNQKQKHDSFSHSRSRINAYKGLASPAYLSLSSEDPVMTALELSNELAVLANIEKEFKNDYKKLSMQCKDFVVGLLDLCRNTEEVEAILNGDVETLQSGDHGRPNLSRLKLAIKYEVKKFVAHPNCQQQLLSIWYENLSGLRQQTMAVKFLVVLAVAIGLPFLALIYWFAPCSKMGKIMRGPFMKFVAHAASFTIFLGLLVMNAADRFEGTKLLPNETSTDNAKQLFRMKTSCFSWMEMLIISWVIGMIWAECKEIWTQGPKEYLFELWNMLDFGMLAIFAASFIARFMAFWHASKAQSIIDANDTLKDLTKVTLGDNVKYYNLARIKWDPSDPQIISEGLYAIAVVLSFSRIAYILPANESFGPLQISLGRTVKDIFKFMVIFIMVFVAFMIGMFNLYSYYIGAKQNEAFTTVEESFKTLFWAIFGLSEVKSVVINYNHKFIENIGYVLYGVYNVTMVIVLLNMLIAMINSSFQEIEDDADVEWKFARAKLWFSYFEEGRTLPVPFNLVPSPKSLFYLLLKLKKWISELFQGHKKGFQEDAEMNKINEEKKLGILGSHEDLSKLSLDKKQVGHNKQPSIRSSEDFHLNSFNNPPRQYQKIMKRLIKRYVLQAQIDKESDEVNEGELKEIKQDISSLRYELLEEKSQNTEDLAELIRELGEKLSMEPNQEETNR
Experiment: Evaluation of TRPC6 channel inhibitory activity (1), FLIPR Calcium 5 Assay Kit, OAG stimulation (Compound Nos. 1-1293)
Assay type: cell-based
Conditions: Human TRPC6 stably-expressing cells, OAG 30 μM, FLIPR Calcium 5 Assay Kit; read-out: Inhibitory activity (pIC50 class) (converted)
In short: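 Calcium influx read by FLIPR fluorescence in cells stably expressing human TRPC6, dye-loaded 30 min. Compounds preincubated 20 min, then OAG stimulation at 30 μM final. Inhibition fitted by four-parameter logistic regression to give pIC50, reported as +/++/+++ categories.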

| IC50 | Compound |
| --- | --- |
| > 1000 nM | N#Cc1ccc(-c2ccc(C(O)CN)cc2)c(Sc2cnnc(N3CCOCC3)c2)c1 (stereo not shown) [compound 1238, 4-[4-(2-amino-1-hydroxyethyl)phenyl]-3-(6-morpholin-4-ylpyridazin-4-yl)sulfanylbenzonitrile] |
| > 1000 nM | Cc1c(Oc2cc(C#N)ccc2-c2ncc(CCN)cn2)cnn1CC(F)F [compound 925, 4-[5-(2-aminoethyl)pyrimidin-2-yl]-3-[1-(2,2-difluoroethyl)-5-methylpyrazol-4-yl]oxybenzonitrile] |
| 10 to 1000 nM | Cc1nc(Oc2cc(C#N)ccc2-c2ccc(C[C@H](N)C(N)=O)cc2)cc(-c2ccccc2)n1 [Compound 240, (2S)-2-amino-3-[4-[4-cyano-2-(2-methyl-6-phenylpyrimidin-4-yl)oxyphenyl]phenyl]propanamide] |
| 10 to 1000 nM | Cc1cc(Oc2cc(C#N)ccc2-c2ncc([C@H](O)CN)cn2)cc(N2C[C@@H]3C[C@H]2CO3)n1 [compound 528, 4-[5-[(1S)-2-amino-1-hydroxyethyl]pyrimidin-2-yl]-3-[2-methyl-6-[(1S,4S)-2-oxa-5-azabicyclo[2.2.1]heptan-5-yl]pyridin-4-yl]oxybenzonitrile] |
| 10 to 1000 nM | Cc1nc(Sc2cc(C#N)ccc2-n2cc(CCN)cn2)cc(N2CCCC2)n1 [compound 1253, 4-[4-(2-aminoethyl)pyrazol-1-yl]-3-(2-methyl-6-pyrrolidin-1-ylpyrimidin-4-yl)sulfanylbenzonitrile] |
| < 10 nM | Cc1nc(Oc2cc(F)ccc2-c2ccc(CCN)cn2)cc(N2CCOCC2)n1 [compound 1001, 2-[6-[4-fluoro-2-(2-methyl-6-morpholin-4-ylpyrimidin-4-yl)oxyphenyl]pyridin-3-yl]ethanamine] |
| 10 to 1000 nM | Cc1nc(C(=O)c2cc(C#N)ccc2-c2ncc(CCN)cn2)cc(N2CCOCC2)n1 [compound 1040, 4-[5-(2-aminoethyl)pyrimidin-2-yl]-3-(2-methyl-6-morpholin-4-ylpyrimidine-4-carbonyl)benzonitrile] |
| > 1000 nM | Cc1nc(C2CCOCC2)cn1Cc1cc(C#N)ccc1-c1ccc([C@H](O)CN)cn1 [compound 1165] |
| > 1000 nM | Cc1nc(Oc2cc(C#N)ccc2-c2ncc(CN)cn2)cc(N2CCC2=O)n1 [compound 882, 4-[5-(aminomethyl)pyrimidin-2-yl]-3-[2-methyl-6-(2-oxoazetidin-1-yl)pyrimidin-4-yl]oxybenzonitrile] |
| 10 to 1000 nM | Cc1cc(Oc2cc(C#N)ccc2-c2ccc([C@H](O)CN)cn2)cc(C2CCOCC2)n1 [compound 580, 4-[5-[(1S)-2-amino-1-hydroxyethyl]pyridin-2-yl]-3-[2-methyl-6-(oxan-4-yl)pyridin-4-yl]oxybenzonitrile] |
| < 10 nM | Cc1cc(C(=O)c2cc(F)ccc2-c2ncc(CCN)cn2)cc(N2CCOCC2)n1 [compound 1097, [2-[5-(2-aminoethyl)pyrimidin-2-yl]-5-fluorophenyl]-(2-methyl-6-morpholin-4-ylpyridin-4-yl)methanone] |
| > 1000 nM | N#Cc1ccc(-c2ncc(CN)cn2)c(Oc2cnnc(NC3COC3)c2)c1 [compound 766, 4-[5-(aminomethyl)pyrimidin-2-yl]-3-[6-(oxetan-3-ylamino)pyridazin-4-yl]oxybenzonitrile] |
| < 10 nM | CCN(CC)c1cc(Oc2cc(C#N)ccc2-c2ccc([C@H](F)CN)cn2)n(C)n1 [compound 915, 4-[5-[(1S)-2-amino-1-fluoroethyl]pyridin-2-yl]-3-[5-(diethylamino)-2-methylpyrazol-3-yl]oxybenzonitrile] |
| < 10 nM | N#Cc1ccc(-c2ccc(CCN)cc2)c(Sc2cnnc(N3CCOCC3)c2)c1 [compound 1239, 4-[4-(2-aminoethyl)phenyl]-3-(6-morpholin-4-ylpyridazin-4-yl)sulfanylbenzonitrile] |
| > 1000 nM | Cc1cc(Oc2cc(C#N)ccc2-c2ncc(OC3CNC3)cn2)cc(N2CCOCC2)n1 [compound 563, 4-[5-(azetidin-3-yloxy)pyrimidin-2-yl]-3-(2-methyl-6-morpholin-4 ylpyridin-4-yl)oxybenzonitrile] |
| > 1000 nM | Cn1nc(C2CC2)cc1Oc1cc(C#N)ccc1-c1nnc(CN)s1 [compound 582, 4-[5-(aminomethyl)-1,3,4-thiadiazol-2-yl]-3-(5-cyclopropyl-2-methylpyrazol-3-yl)oxybenzonitrile] |

| IC50 | Compound |
| --- | --- |
| < 10 nM | Cn1nc(-c2ccc(F)cc2)cc1Oc1cc(C#N)ccc1-c1ccc(CCN)cn1 [Compound 185, 4-[5-(2-aminoethyl)pyridin-2-yl]-3-[5-(4-fluorophenyl)-2-methylpyrazol-3-yl]oxybenzonitrile] |
| < 10 nM | Cn1nc(N2CCCCC2)cc1Oc1cc(C#N)ccc1-c1ccc([C@H](O)CN)cn1 [compound 544, 4-[5-[(1S)-2-amino-1-hydroxyethyl]pyridin-2-yl]-3-(2-methyl-5-pipeddin-1-ylpyrazol-3-yl)oxybenzonitrile] |
| 10 to 1000 nM | Cc1nn(CC(C)C)c(C)c1Oc1cc(C#N)ccc1-c1ncc(CCN)cn1 [compound 939, 4-[5-(2-aminoethyl)pyrimidin-2-yl]-3-[3,5-dimethyl-1-(2-methylpropyl)pyrazol-4-yl]oxybenzonitrile] |
| 10 to 1000 nM | CC(C)COCc1cn(Cc2cc(C#N)ccc2-c2ccc(CCN)cc2)cn1 [compound 1119, 4-[4-(2-aminoethyl)phenyl]-3-[[4-(2-methylpropoxymethyl)imidazol-1-yl]methyl]benzonitrile] |
| < 10 nM | Cn1nc(-c2ccccn2)cc1Cc1cc(C#N)ccc1-c1ncc(CN)cn1 [compound 1205, 4-[5-(aminomethyl)pyrimidin-2-yl]-3-[(2-methyl-5-pyridin-2-ylpyrazol-3-yl)methyl]benzonitrile] |
| 10 to 1000 nM | N#Cc1ccc(-c2ncc(CCN)cn2)c(Sc2sc(-c3ccccc3)nc2C#N)c1 [compound 1274, 5-[2-[5-(2-aminoethyl)pyrimidin-2-yl]-5-cyanophenyl]sulfanyl-2-phenyl-1,3-thiazole-4-carbonitrile] |
| > 1000 nM | Cc1cc(Oc2cc(C#N)ccc2-c2ncc(CCN3CCOCC3)cn2)cc(N2CCOCC2)n1 [compound 419, 3-(2-methyl-6-morpholin-4-ylpyridin-4-yl)oxy-4-[5-(2-morpholin-4-ylethyl)pyrimidin-2-yl]benzonitrile] |
| > 1000 nM | Cc1nc(Oc2cc(C#N)ccc2-c2ncc(CN)cn2)cc(-c2ccc(F)cn2)n1 [compound 474, 4-[5-(aminomethyl)pyrimidin-2-yl]-3-[6-(5-fluoropyridin-2-yl)-2-methylpyrimidin-4-yl]oxybenzonitrile] |
| 10 to 1000 nM | Cn1nc(-c2ccccc2)cc1Oc1cc(C#N)ccc1-c1ccc(CCNC2COC2)cn1 [Compound 207, 3-(2-methyl-5-phenylpyrazol-3-yl)oxy-4-[5-[2-(oxetan-3 ylamino)ethyl]pyridin-2-yl]benzonitrile] |
| < 10 nM | CC(C)n1cc(C(=O)c2cc(C#N)ccc2-c2ncc(CN)cn2)cn1 [compound 1045, 4-[5-(aminomethyl)pyrimidin-2-yl]-3-(1-propan-2-ylpyrazole-4-carbonyl)benzonitrile] |
| < 10 nM | CCC(N)c1cnc(-c2ccc(C#N)cc2Oc2cc(-c3ccccn3)nn2C)nc1 (stereo not shown) [compound 734, 4-[5-(1-aminopropyl)pyrimidin-2-yl]-3-(2-methyl-5-pyridin-2-ylpyrazol-3-yl)oxybenzonitrile] |
| < 10 nM | CC(C)C(N)c1cnc(-c2ccc(C#N)cc2Oc2cc(-c3ccccn3)nn2C)nc1 (stereo not shown) [compound 768, 4-[5-(1-amino-2-methylpropyl)pyrimidin-2-yl]-3-(2-methyl-5-pyridin-2-ylpyrazol-3-yl)oxybenzonitrile] |
| 10 to 1000 nM | Cc1nc(Oc2cc(C#N)ccc2-c2ccc(C3(CN)CC3)cc2)cc(N2CCOCC2)n1 [Compound 67, 4-[4-[1-(aminomethyl)cyclopropyl]phenyl]-3-(2-methyl-6-morpholin-4-ylpyrimidin-4-yl)oxybenzonitrile] |
| 10 to 1000 nM | Cc1nc(Oc2cc(C#N)ccc2-c2ccc(C(O)CN)c(O)c2)cc(N2CCOCC2)n1 (stereo not shown) [Compound 152, 4-[4-(2-amino-1-hydroxyethyl)-3-hydroxyphenyl]-3-(2-methyl-6-morpholin-4-ylpyrimidin-4-yl)oxybenzonitrile] |
| > 1000 nM | COCc1nn(C)c(Oc2cc(C#N)ccc2-c2ccc(CCN)cc2)c1C [Compound 242, 4-[4-(2-aminoethyl)phenyl]-3-[5-(methoxymethyl)-2,4-dimethylpyrazol-3-yl]oxybenzonitrile] |
